# Laboratory results published in ChEMBL document CHEMBL1141346, “Psammaplysenes C and D, cytotoxic alkaloids from Psammoclemma sp” (J Nat Prod, 2007).
# Legend:
# THP-1 = assay: Cytotoxicity against human THP1 cells expressing P2X7 receptor after 21 hrs by Almar blue cytotoxicity assay; type: functional, cell-based; details: THP-1, 21 h
# [1] = molecular target: T1, P2X purinoceptor 7 (Homo sapiens) (UniProt Q99572); assay: Antagonist activity at P2X7 receptor expressed in human THP1 cells after 90 mins; type: functional, cell-based; parameters: scale not given: the % may be the effect or the level left; details: THP-1
# T1 sequence (whole entry): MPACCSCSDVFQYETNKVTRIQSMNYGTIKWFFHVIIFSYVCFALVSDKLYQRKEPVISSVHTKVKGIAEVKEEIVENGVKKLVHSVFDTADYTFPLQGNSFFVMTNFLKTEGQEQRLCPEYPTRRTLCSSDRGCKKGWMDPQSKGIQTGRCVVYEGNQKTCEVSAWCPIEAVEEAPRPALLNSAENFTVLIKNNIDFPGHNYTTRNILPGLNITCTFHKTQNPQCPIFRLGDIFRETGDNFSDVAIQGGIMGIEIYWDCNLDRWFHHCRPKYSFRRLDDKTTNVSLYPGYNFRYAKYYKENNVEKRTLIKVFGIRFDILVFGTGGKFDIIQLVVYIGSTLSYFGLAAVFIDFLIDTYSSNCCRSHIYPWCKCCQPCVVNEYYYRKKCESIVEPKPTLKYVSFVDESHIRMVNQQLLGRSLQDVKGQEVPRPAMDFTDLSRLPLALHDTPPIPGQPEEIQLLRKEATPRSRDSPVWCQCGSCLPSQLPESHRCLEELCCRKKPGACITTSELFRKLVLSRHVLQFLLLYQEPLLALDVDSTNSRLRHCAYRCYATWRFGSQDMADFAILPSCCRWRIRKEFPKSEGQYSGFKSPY
Activity [1] [%],SMILES,IC50 (THP-1) [µM]
44,CN(C)CCCOc1ccc(/C=C/C(=O)N(C)CCCOc2c(Br)cc(CCN(C)C)cc2Br)cc1Br [PSAMMAPLYSENE C],7
72,CN(C)CCCOc1c(Br)cc(/C=C/C(=O)N(C)CCCOc2c(Br)cc(CCN(C)C)cc2Br)cc1Br [PSAMMAPLYSENE D],7
